One experiment concerns HEK293. The experiment in a line: Fluorescence-based counterscreen for potentiators or agonists of NPY-Y2: cell-based high-throughput dose response assay to identify inhibitors of cyclic nucleotide gated ion channel (CNGC) activity. In this assay, the parental HEK293 cell line transfected with a cyclic-nucleotide gated ion channel (CNGC)-based cAMP sensor is used to measure inhibition of isoproterenol-induced CNGC activity by test compound. It counts as functional. The note with it: Homo sapiens. On the technique in general: A counterscreen serves to expose hits that act by an unwanted route or on another target.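 Further: stimulus is 1 µM isoproterenol at EC100 plus PDE inhibitor Ro 20-1724 at 25 µM.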

Experiment [1] addresses T1, Heat shock factor protein 1 (Mus musculus, UniProt P38532).
T1 sequence (P38532 whole entry): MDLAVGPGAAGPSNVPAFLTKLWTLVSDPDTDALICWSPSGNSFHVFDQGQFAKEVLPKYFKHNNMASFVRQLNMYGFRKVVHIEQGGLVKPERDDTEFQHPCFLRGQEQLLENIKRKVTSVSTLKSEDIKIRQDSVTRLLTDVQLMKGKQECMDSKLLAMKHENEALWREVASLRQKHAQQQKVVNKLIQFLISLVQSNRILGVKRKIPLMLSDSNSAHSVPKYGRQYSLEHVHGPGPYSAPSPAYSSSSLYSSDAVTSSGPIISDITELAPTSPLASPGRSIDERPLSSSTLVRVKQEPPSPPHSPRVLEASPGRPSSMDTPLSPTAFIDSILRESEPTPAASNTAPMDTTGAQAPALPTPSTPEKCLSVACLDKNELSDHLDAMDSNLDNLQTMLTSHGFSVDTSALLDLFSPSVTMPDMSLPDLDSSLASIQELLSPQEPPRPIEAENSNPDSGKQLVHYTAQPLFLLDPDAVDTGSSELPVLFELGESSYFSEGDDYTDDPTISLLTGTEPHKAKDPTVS
Briefly: inhibition of MG132-induced HSE-luciferase signal, confirmation, cell-based, NIH3T3, luminescence, dose retest (AID 2382).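 Further: NIH3T3 fibroblasts with HSF1-driven luciferase reporter stressed by proteasome inhibitor MG132; luminescence from HSF1-driven luciferase expression after 8 hours of MG132 stress.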 The format is functional.

For experiment [2], the target named is Solute carrier family 12 member 2/member 5 (Homo sapiens, UniProt P55011+Q9H2X9). Briefly: KCC2 and NKCC1 inhibition by rubidium flux, cell-based, NKCC1 counter-screen (AID 1734). The format is functional, HEK293.
The nature of experiment [3]: HepG2 cell cytotoxicity, dose response, cytotoxicity control, cherry-picked samples (AID 1159577). The format is functional, cell-based.
Experiment [4] can be described thus: P. falciparum Dd2 growth inhibitors, dose response, SYBR Green, dry powder samples, set 9 (AID 1159568). The format is functional, cell-based.
Experiment [5] is described as follows: P. falciparum Dd2 growth inhibitors, dose response, SYBR Green, dry powder samples (AID 1159566).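 Further: potency for growth inhibition with lower SYBR green DNA signal.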 It counts as functional, cell-based.
Experiment [6] is described as follows: HepG2 cell cytotoxicity, dose response, cytotoxicity control, plate reader, dry powder samples (AID 1159569).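 Further: inhibitor potency with signal falling toward the positive control level.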 The format is functional, cell-based.
Experiment [7] in a line: P. falciparum 3D7-ScDHODH growth inhibitors, dose response, SYBR Green, dry powder samples (AID 1159570).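 Further: parasite growth measured after 72 hours of compound exposure.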 The format is functional, cell-based.
The nature of experiment [8]: Plasmodium falciparum Dd2 Sybr green parasite growth Measured in Cell-Based and Microorganism Combination System Using Plate Reader - 2153-01_Inhibitor_Dose_DryPowder_Activity_Set3. It counts as functional.
A short description of experiment [9]: P. falciparum ATP4 D1247Y mutant growth inhibitors, dose response, NITD609-resistant line, SYBR Green, dry powder (AID 1159571).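 Further: parasites synchronized at ring stage by sorbitol before testing.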 The format is functional, cell-based.
Experiment [10] in a line: P. falciparum Dd2 growth inhibitors, dose response, SYBR Green, cherry-picked samples (AID 1159567). The format is functional, cell-based.
The target in experiment [11] is T2, RNA-binding protein pos-1 (Caenorhabditis elegans, UniProt G5EF15).
T2 sequence (G5EF15 whole entry): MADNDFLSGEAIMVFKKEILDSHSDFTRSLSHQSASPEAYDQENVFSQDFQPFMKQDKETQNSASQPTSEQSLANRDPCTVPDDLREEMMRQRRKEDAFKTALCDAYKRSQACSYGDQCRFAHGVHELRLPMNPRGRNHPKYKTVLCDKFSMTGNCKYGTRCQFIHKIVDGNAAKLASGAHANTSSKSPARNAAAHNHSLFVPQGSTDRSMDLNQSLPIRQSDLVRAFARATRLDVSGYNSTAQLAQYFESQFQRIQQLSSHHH
Briefly: inhibitors of POS-1/mex-3 RNA binding, dose response, biochemical, fluorescence polarization (AID 1964).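 Further: purified POS-1 fused to maltose binding protein made in E. coli; potency of compounds blocking POS-1 binding to fluorescent RNA.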

For experiment [12], the target named is UDP-galactopyranose mutase (Mycobacterium tuberculosis, UniProt P9WIQ1). The experiment in a line: Inhibitors of Mycobacterium tuberculosis UDP-galactopyranose mutase (UGM) enzyme Measured in Biochemical System Using Plate Reader - 2105-02_Inhibitor_Dose_CherryPick_Activity. [Related pubchem assays (depositor defined):AID504439].
UDP-galactopyranose mutase, sequence (P9WIQ1 whole entry): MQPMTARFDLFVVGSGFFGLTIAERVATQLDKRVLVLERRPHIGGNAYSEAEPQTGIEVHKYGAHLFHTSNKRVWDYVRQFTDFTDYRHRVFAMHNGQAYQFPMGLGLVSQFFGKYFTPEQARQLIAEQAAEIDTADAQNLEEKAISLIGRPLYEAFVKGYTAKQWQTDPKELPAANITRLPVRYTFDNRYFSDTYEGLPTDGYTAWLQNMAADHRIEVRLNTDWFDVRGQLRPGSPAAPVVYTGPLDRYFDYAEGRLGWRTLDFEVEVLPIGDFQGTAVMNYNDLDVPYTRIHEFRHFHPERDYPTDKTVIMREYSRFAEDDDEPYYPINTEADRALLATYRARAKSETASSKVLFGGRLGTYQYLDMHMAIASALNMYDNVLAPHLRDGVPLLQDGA
A further experiment deals with Heat shock protein HSP90 (Homo sapiens, UniProt P07900+P08238). Briefly: tumor Hsp90 inhibitor potency, dose response (AID 712). The format is functional.
Experiment [13] addresses T3, Endoribonuclease toxin MazF (Escherichia coli K-12, UniProt P0AE70).
T3 sequence (P0AE70 whole entry): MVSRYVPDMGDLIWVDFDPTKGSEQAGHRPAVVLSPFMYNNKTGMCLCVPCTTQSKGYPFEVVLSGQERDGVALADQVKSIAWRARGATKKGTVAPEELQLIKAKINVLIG
The experiment in a line: fluorescent RNA oligo signal without MazF, dose response, counter-screen for MazEF activator project, biochemical, fluorescence, single-stranded RNase substrate (AID 588502). It counts as functional.

In experiment [14] the target is T3, Endoribonuclease toxin MazF. Briefly: MazF toxin RNase activators, dose response, biochemical, fluorescence, single-stranded RNA substrate, uHTS hits (AID 588481). The format is functional.
The target of another experiment is Troponin, cardiac muscle (Homo sapiens, UniProt P19429+P45379+P63316). The experiment in a line: Fluorescence-based biochemical high throughput dose response assay for activators of the calcium sensitivity of cardiac Regulated Thin Filaments (RTF). [Related pubchem assays (depositor defined):AID493008, AID493018, AID504382, AID504383]. It counts as protein-complex assay.

Another experiment deals with T4, 14-3-3 protein gamma (Homo sapiens, UniProt P61981).
T4 sequence (P61981 whole entry): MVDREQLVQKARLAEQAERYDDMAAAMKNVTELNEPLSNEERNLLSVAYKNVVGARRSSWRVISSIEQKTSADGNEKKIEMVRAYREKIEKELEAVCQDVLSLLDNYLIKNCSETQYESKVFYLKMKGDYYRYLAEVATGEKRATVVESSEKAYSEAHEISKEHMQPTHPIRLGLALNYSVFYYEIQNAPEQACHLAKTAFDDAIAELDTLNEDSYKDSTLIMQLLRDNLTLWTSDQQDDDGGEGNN
Briefly: modulators of 14-3-3 gamma client binding – dose response (AID 711). It counts as functional.

In experiment [15] the target is T5, Corticotropin-releasing factor receptor 2/Corticotropin-releasing factor-binding protein (Homo sapiens, UniProt P24387+Q13324).
T5 sequence (Q13324 whole entry): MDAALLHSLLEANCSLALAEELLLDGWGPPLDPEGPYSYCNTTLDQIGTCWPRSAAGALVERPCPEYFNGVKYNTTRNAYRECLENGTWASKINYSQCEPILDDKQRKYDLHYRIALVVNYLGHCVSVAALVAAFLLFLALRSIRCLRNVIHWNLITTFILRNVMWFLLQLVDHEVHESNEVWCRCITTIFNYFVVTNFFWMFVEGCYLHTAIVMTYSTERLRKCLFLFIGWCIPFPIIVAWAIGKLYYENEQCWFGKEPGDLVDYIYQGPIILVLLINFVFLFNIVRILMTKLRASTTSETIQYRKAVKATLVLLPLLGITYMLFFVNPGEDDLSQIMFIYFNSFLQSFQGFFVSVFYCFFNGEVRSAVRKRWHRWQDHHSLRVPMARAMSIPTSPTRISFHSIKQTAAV
T5 sequence (P24387 whole entry): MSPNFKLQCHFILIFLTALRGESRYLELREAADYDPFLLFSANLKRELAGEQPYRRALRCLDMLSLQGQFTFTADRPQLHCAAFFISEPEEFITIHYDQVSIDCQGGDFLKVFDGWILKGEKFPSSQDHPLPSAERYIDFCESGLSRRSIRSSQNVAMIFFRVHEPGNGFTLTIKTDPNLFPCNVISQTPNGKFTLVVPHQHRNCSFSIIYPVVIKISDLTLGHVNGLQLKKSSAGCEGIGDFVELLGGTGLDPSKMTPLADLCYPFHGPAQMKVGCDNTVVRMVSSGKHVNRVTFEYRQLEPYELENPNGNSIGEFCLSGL
The experiment in a line: activators of CRF receptor 2 with binding protein – uHTS hits, confirmation (AID 602473). The following applies: read-out: EC50_Mean. It counts as functional.

The target in experiment [16] is T6, Bcl-2-related protein A1 (Mus musculus, UniProt Q07440).
T6 sequence (Q07440 whole entry): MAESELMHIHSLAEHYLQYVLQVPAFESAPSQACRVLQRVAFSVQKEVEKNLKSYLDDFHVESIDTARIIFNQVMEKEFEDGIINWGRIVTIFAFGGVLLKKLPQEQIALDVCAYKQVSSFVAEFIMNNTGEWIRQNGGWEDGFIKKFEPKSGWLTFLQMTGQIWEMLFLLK
The experiment in a line: Bfl-1 inhibitors blocking BH3 peptide binding, confirmation, biochemical, TR-FRET, mouse Bfl-1 (AID 621).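 Further: TR-FRET binding of GST-Bfl-1 to FITC-labelled Bid peptide via terbium antibody.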 A general note: TR-FRET usually uses a lanthanide donor and a delayed reading to cut background.

Experiment [17] has as its target T7, Sentrin-specific protease 1 (Homo sapiens, UniProt Q9P0U3).
T7 sequence (Q9P0U3 whole entry): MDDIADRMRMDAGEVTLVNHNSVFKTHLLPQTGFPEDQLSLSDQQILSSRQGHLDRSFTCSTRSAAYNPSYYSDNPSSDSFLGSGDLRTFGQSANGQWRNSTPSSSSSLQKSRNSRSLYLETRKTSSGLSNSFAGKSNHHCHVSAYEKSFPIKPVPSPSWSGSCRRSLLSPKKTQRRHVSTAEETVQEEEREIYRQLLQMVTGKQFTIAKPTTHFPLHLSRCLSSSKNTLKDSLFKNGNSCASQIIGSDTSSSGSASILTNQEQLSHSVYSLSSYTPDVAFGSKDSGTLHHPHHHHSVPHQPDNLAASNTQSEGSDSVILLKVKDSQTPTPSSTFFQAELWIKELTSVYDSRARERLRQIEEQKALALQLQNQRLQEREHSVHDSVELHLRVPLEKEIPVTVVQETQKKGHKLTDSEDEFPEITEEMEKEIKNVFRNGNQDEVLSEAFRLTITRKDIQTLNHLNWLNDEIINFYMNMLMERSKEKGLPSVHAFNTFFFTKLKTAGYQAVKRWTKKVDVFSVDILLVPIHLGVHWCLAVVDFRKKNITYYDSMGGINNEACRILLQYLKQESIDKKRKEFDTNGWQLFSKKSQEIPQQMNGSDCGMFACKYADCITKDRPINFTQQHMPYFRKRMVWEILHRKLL
Briefly: Dose response confirmation of small molecule inhibitors of the catalytic domain of the SUMO protease, SENP1 in a FRET assay. The format is functional. The following applies: read-out: IC50_Mean.

In experiment [18] the target is T7, Sentrin-specific protease 1. The experiment in a line: potency of human SENP1 inhibitors, dose response, biochemical, kinetic FRET (AID 651697). The following applies: read-out: IC50_Mean. It counts as functional.
The target of experiment [19] is T6, Bcl-2-related protein A1. The experiment in a line: Bfl-1 inhibitors, primary screen, biochemical, fluorescence polarization, FITC-Bid, mouse (AID 432).

What is called AC50 is the concentration giving half of the maximal activity seen.

Molecules are shown by their SMILES. Counter-ions that a name gives are not always drawn. Activity calls are given as the source filed them. Bounds are passed on as bounds.

As for `COCCc1ccc(OCC(O)CNC(C)C)cc1` (stereo not drawn) [METOPROLOL TARTRATE], in the experiment with HEK293, the EC50 is 2.99 µM (active).
`Cc1csc(NC(=O)CSc2ccc(-c3ccccc3)nn2)n1`: the EC50 in experiment [1] is > 195 µM (not active). Moreover, the IC50 in [2] is 0.56 µM (active).
As to `COc1ccc(-c2ccc([C@H]3[C@@H](C#N)N(C(=O)NC(C)C)[C@H]3CO)cc2)cc1`, the AC50 is 3.33 µM (active) in experiment [3]; 1.2 µM (active) in [4]; 0.559 µM (active) in experiment [5]; 80.6 µM (active) in experiment [6]; 3.98 µM (active) in [7]; 1.86 µM (active) in experiment [8]. The concentration at half-maximal activity (AC50) in [9] was 0.874 µM (active); in experiment [10], 0.89 µM (active).
On to `CN(C)c1ccc(/N=C/c2nc(-c3ccccc3)oc2O)cc1`, for which the EC50 is 5.7 µM (active) in experiment [11]; 56.6 µM (inactive) in experiment [13]; 46.7 µM (inactive) in experiment [14]; 3.71 µM (active) at Troponin, cardiac muscle; 7.96 µM (active) in [15]. Moreover, the AC50 in [12] is 68.2 µM (active). Moreover, the IC50 on Heat shock protein HSP90 was 27.302 µM; on 14-3-3 protein gamma, 9.68 µM (active).
`Nc1ccc(C2CCCc3nonc32)c2nonc12` (stereo not drawn): the IC50 on Bcl-2-related protein A1 [16] is > 100 µM (not active); in [17], 39.4 µM (inactive); in experiment [18], 42 µM (inactive); against Bcl-2-related protein A1 [19], > 100 µM (not active).

Source of the values: ChEMBL document CHEMBL1201862, “PubChem BioAssay data set” (2004).
